We go through 2 molecules from patent US5892063A (Hauser, Inc., priority 1997, dated 1999).

Test [1] has as its system cell line panel (leukemia, non-small-cell lung cancer, colon, CNS, melanoma, ovarian, renal, prostate and breast cancers). As to the kind of experiment: SRB growth screen, whole cell line panel. The class given is cell-based. On the procedure:
The screening assay is performed on 96-well microtitre plates. […] Duplicate wells are prepared for all concentrations; "time-zero" and "nodrug" controls are also provided for each test. […] One hundred microliters of SRB solution (0.4% w/v in 1% acetic acid) is added to each microtitre well and incubated for 10 minutes at room temperature.
The response parameters GI50 and LC50 are interpolated values representing the concentrations at which the percentage growth (PG) is +50 and -50 respectively:
GI50 is the concentration for which the PG=+50.
TGI is the concentration for which PG=0.
LC50 is the concentration for which the PG=-50. […] This is interpreted as cytotoxicity.
The data represented in Table I is graphically represented in FIGS. 1a and 1b through FIGS. 9a and 9b. […] The following is an example of how the information in Table I and in the Figures is interpreted.

The subject of a further test is SNB-75. As to the kind of experiment: SRB growth screen, CNS cancer SNB-75. As to conditions: Homo sapiens, SNB-75, 48 h.
In another test the test system is HS 578T. As to the kind of experiment: SRB growth screen, breast cancer HS 578T. The conditions noted are these: Homo sapiens, 48 h.
The next test has as its system microtubule. As to conditions: cited from earlier work.
[2] abbreviates: read-out: Log10 GI50 (converted).
Setting [3] is: read-out: Log10 LC50 (converted).

For orientation: GI50 means the concentration that inhibits growth by half. On to `CC(=O)O[C@H]1C(=O)[C@@]2(C)[C@H]([C@H](OC(=O)c3ccccc3)[C@]3(O)C[C@H](OC(=O)[C@H](O)[C@@H](NC(=O)C4(C)OC4C)c4ccccc4)C(C)=C1C3(C)C)[C@]1(OC(C)=O)CO[C@@H]1C[C@@H]2O` (some centres unmarked) [Ceph-epoxide, cephalomannine epoxide], for which the “potency as compared to paclitaxel” value in test [1] (on the whole, all cell lines) was “equivalent to and in many instances greater than that of paclitaxel's”. Moreover, the “Log10 TGI, Range” value in test [1] (range over cell lines (log10 units)) is given as 4.00. The GI50 in the test on SNB-75 (setting [2]) and in the test on HS 578T (setting [2]) was below 10 nM each time. Besides, the CC50 with SNB-75 (setting [3]) and in the test with HS 578T (setting [3]) was above 100000 nM throughout. Besides, the IC (TGI) in the test on HS 578T (read-out: Log10 TGI) is 55 nM.
For the molecule `CC(=O)O[C@H]1C(=O)[C@@]2(C)[C@H]([C@H](OC(=O)c3ccccc3)[C@]3(O)C[C@H](OC(=O)[C@H](O)[C@@H](NC(=O)c4ccccc4)c4ccccc4)C(C)=C1C3(C)C)[C@]1(OC(C)=O)CO[C@@H]1C[C@@H]2O` [Paclitaxel, paclitaxel, reference compound], the effect on microtubules entry with microtubule was “stabilizes microtubules and inhibits depolymerization back to tubulin”.
